{"source": "patent US9616006B2", "about": "“Methods and compositions for treating dermatological diseases and conditions” (priority 2007, dated 2017)", "key": {"IL-6": {"system": "IL-6", "assay": "IL-1-induced IL-6 production in fibroblasts (ELISA)", "type": "cell-based, human", "details": "Homo sapiens, Fibroblast, Fibroblasts (IL-1), read-out: Percent Inhibition of IL-6", "method": "In one study, various concentrations of DHE were added to culture medium and these media were placed on human fibroblast cell cultures (results shown in FIG. 1). […] At 24 hours after treatment, the cell culture medium was removed and assayed by ELISA methods for the expression of PGE-2, various cytokines and chemokines.\n(§1) DHE and IE both have inhibitory effects on the production of the inflammatory mediators in fibroblasts."}, "MCP-1": {"system": "MCP-1", "assay": "LPS-induced MCP-1 production in monocytes", "type": "cell-based", "details": "Monocyte; Monocytes (LPS); 100 uM; read-out: Percent Inhibition of MCP-1", "source_text": "(§2) DHE and IE both have inhibitory effects on the production of the inflammatory mediators in monocytes."}, "TNF-α [1]": {"system": "TNF-α", "assay": "TPA-induced TNF-α production in keratinocytes (ELISA)", "type": "cell-based, human", "details": "Homo sapiens, Keratinocyte; Keratinocytes (TPA); 100 uM; read-out: Percent Inhibition of TNF-α", "method": "(§3) In one study, various concentrations of DHE were added to culture medium and these media were placed on human fibroblast cell cultures (results shown in FIG. 1). Cells were either not induced or induced with UVB radiation to stimulate cytokine/PGE-2 production. At 24 hours after treatment, the cell culture medium was removed and assayed by ELISA methods for the expression of PGE-2, various cytokines and chemokines.\n(§4) When similar experiments were carried out with human keratinocytes, DHE was again found to markedly suppress the UVR induction of PGE-2, with a concentration of 50 uM inhibiting the production of PGE-2 by over 60% (results shown in FIG. 2). […] Further, since PGE-2 is known to be a principal factor in the development of actinic keratosis and skin cancer, DHE can also be used in treating these conditions.\nInflammatory mediators produced in the skin contribute to the development and propagation of such diseases as rosacea, psoriasis and atopic dermatitis. While many inflammatory mediators are involved in these diseases, TNF-α is known to be a major cytokine involved in psoriasis. For atopic dermatitis, TNF-α, IL-8, and MCP-1 are important mediators of inflammation in these diseases. DHE is effective in suppressing the TPA-induced (TPA is tetradecanolyl phorbol ester) production of TNF-α by approximately 50% at a 100 micromolar concentration (results shown in FIG. 3).\n(§5) DHE and IE both have inhibitory effects on production of the inflammatory mediators in keratinocytes."}, "PGE-2": {"system": "PGE-2", "assay": "UV-induced PGE-2 production in fibroblasts (ELISA)", "type": "cell-based, human", "details": "Homo sapiens, Fibroblast; Fibroblasts (UV); 100 uM; read-out: Percent Inhibition of PGE-2", "method": "as §3\nAs is shown in FIG. 1, UV radiation (UVR) treatment of fibroblasts results in a 6 fold increase in PGE-2.\nas §1"}, "IL-8 [2]": {"system": "IL-8", "assay": "TNF-α-induced IL-8 production in monocytes", "type": "cell-based", "details": "Monocyte, read-out: Percent Inhibition of IL-8", "source_text": "as §2"}, "elastin mRNA": {"system": "elastin mRNA", "assay": "Elastin mRNA in human dermal fibroblasts by RT-PCR", "type": "cell-based", "details": "72 hours", "source_text": "The presently claimed and disclosed inventive concept(s) further contemplates use of various DHE, IE and EV compositions and salts, esters, ethers, and derivatives thereof to mitigate the effects of aging on the skin. For all aging studies, normal human fibroblast cell cultures were used. These cells normally produce collagen, elastin and hyaluronic acid. As the skin ages, the fibroblasts in the dermis lose their ability to produce these three key components of skin, and the skin consequently loses elasticity, thickness and smooth texture. […] There are about 13 of these enzymes, collectively referred to as MMPs (matrix metalloproteinases). One of the principal MMPs, MMP-1, is responsible for collagen degradation. […] The image is from an electrophoresis gel of DNA amplified by PCR from fibroblast mRNA. This gel was analyzed and the density of each band quantified by image analysis software."}, "PGE2": {"system": "PGE2", "assay": "UV-induced PGE2 production in keratinocytes (ELISA)", "type": "cell-based, human", "details": "Homo sapiens, Keratinocyte; Keratinocytes (UV); 100 uM; read-out: Percent Inhibition of PGE2", "method": "as §3, §4, §5"}, "TNF-α [3]": {"system": "TNF-α", "assay": "LPS-induced TNF-α production in monocytes", "type": "cell-based", "details": "Monocyte; Monocytes (LPS); 100 uM; read-out: Percent Inhibition of TNF-α", "source_text": "as §2"}, "collagen 1 mRNA": {"system": "collagen 1 mRNA", "assay": "Collagen mRNA in fibroblasts by RT-PCR", "type": "cell-based, human", "details": "fibroblast cell cultures treated 72 hours", "source_text": "The presently claimed and disclosed inventive concept(s) further contemplates use of various DHE, IE and EV compositions and salts, esters, ethers, and derivatives thereof to mitigate the effects of aging on the skin. For all aging studies, normal human fibroblast cell cultures were used. These cells normally produce collagen, elastin and hyaluronic acid. As the skin ages, the fibroblasts in the dermis lose their ability to produce these three key components of skin, and the skin consequently loses elasticity, thickness and smooth texture. In addition, as fibroblasts age, they increase the expression of certain enzymes that destroy collagen and elastin. There are about 13 of these enzymes, collectively referred to as MMPs (matrix metalloproteinases). One of the principal MMPs, MMP-1, is responsible for collagen degradation. […] Fibroblast cell cultures were treated with either IE, DHE or EV for 72 hours at which time the amount of collagen mRNA present in the cells was determined."}, "IL-12": {"system": "IL-12", "assay": "LPS-induced IL-12 production in monocytes", "type": "cell-based", "details": "Monocyte, read-out: Percent Inhibition of IL-12", "source_text": "as §2"}, "IL-8 [4]": {"system": "IL-8", "assay": "IL-1-induced IL-8 production in fibroblasts (ELISA)", "type": "cell-based, human", "details": "Homo sapiens, Fibroblast, Fibroblasts (IL-1), read-out: Percent Inhibition of IL-8"}, "TIMP-1": {"system": "TIMP-1", "assay": "TIMP-1 mRNA in fibroblasts by PCR", "type": "cell-based, human", "source_text": "The presently claimed and disclosed inventive concept(s) further contemplates use of various DHE, IE and EV compositions and salts, esters, ethers, and derivatives thereof to mitigate the effects of aging on the skin. For all aging studies, normal human fibroblast cell cultures were used. These cells normally produce collagen, elastin and hyaluronic acid. As the skin ages, the fibroblasts in the dermis lose their ability to produce these three key components of skin, and the skin consequently loses elasticity, thickness and smooth texture. In addition, as fibroblasts age, they increase the expression of certain enzymes that destroy collagen and elastin. There are about 13 of these enzymes, collectively referred to as MMPs (matrix metalloproteinases). One of the principal MMPs, MMP-1, is responsible for collagen degradation. For experiments herein to determine the effects of DHE, IE and EV on collagen, elastin and hyaluronic acid, fibroblasts were treated with the compounds for 72 hours, mRNA was then isolated, and analyzed for abundance by RT-PCR (Reverse transcriptase-Polymerase Chain Reaction).\nFibroblasts in the skin not only produce enzymes (MMPs) that destroy the skin matrix but they also produce proteins (Tissue Inhibitors of Metalloproteinases, i.e., TIMPS) that inhibit these enzymes. There are several TIMPs, but one that is most important for inhibiting MMPs is TIMP-1. […] Shown in FIG. 11 is PCR data showing the up-regulation of TIMP-1 mRNA by these compounds."}}}
{"smiles": "CC=Cc1ccc(O)c(OC)c1", "note": "[IE, isoeugenol]", "values": [{"measurement": "inhibition at 100 µM", "setting": "IL-6", "result": 53, "unit": "%"}, {"measurement": "inhibition at 100 µM", "setting": "MCP-1", "result": 87, "unit": "%"}, {"measurement": "inhibition at 100 µM", "setting": "TNF-α [1]", "result": 71, "unit": "%"}, {"measurement": "inhibition at 100 µM", "setting": "PGE-2", "result": 77, "unit": "%"}, {"measurement": "inhibition at 100 µM", "setting": "IL-8 [2]", "result": 78, "unit": "%"}, {"measurement": "elastin levels (elastin mRNA)", "setting": "elastin mRNA", "result": "increase"}, {"measurement": "inhibition at 100 µM", "setting": "PGE2", "result": 76, "unit": "%"}, {"measurement": "inhibition at 100 µM", "setting": "TNF-α [3]", "result": 80, "unit": "%"}, {"measurement": "collagen production (collagen mRNA)", "setting": "collagen 1 mRNA", "result": "stimulation"}, {"measurement": "inhibition at 100 µM", "setting": "IL-12", "result": 80, "unit": "%"}, {"measurement": "inhibition at 100 µM", "setting": "IL-8 [4]", "result": 98, "unit": "%"}, {"measurement": "production of TIMP-1 (TIMP-1 mRNA)", "setting": "TIMP-1", "result": "significantly stimulate"}]}
